The values below come from PMC10303271, “Synthesis and Receptor Binding Studies of α5 GABAAR Selective Novel Imidazodiazepines Targeted for Psychiatric and Cognitive Disorders” (Molecules, 2023).

Test [1] concerns the target T1, 5-HT1A (Homo sapiens, UniProt P08908).
T1 construct: purchased NIMH Psychoactive Drug Screening Program (PDSP)
T1 sequence (P08908 1-422): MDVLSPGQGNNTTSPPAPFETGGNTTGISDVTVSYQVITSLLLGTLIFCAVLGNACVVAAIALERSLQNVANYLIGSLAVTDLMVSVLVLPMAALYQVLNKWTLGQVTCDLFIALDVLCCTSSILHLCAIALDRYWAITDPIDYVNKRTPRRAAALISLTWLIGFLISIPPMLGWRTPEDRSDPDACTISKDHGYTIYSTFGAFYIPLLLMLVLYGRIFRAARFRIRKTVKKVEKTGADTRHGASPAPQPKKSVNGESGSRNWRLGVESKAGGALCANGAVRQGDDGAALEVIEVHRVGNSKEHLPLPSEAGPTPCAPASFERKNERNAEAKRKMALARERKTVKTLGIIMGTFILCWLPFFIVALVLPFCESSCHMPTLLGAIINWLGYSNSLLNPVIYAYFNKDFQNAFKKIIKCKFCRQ
As to the kind of experiment: PDSP primary binding 5-HT1A. The conditions noted are these: 1.5 h; primary binding, 10,000 nM; last figure of the line = mean of the 4 before it; read-out: 5-HT1A, PDSP raw data, mean. How it is done:
(§1) To determine if any off-target receptor-binding effects are present, all the novel ligands were sent to the National Institute of Mental Health (NIMH), Psychoactive Drug Screening Program (PDSP). The ligands were screened over a panel of 47 receptors, ion channels, and transporters to determine any other possible interactions with […]. The hERG-binding was also determined. […] No binding of the test compounds to calcium channels was observed. […] It is necessary to screen the compounds for hERG-binding during the early process of drug discovery. The unintentional binding of many drugs to hERG can cause blockade of hERG K+ channels in the heart, which can cause many side effects including cardiac arrhythmias and sudden death. […] All of the α5 imidazodiazepines were tested for hERG-binding.
(§2) The NIMH PDSP assay protocol book [https://kidbdev.med.unc.edu/databases/PDSP%20Protocols%20II%202013-03-28.pdf accessed on 23 April 2023]. describes the protocols for primary and secondary radio-ligand binding assays. These assays were carried out in a final volume of 125 µL per well in the appropriate binding buffer.
(§3) The binding of a ligand to a receptor, ion channel, or transporter was determined in the […] of 10 µM of the appropriate reference compound. […] Plates were incubated in the dark for 90 min at rt, and the reactions were stopped by vacuum filtration onto 0.3% polyethyleneimine (PEI) soaked 96-well filter mats using a 96-well Filtermateharvester. This was followed by three washes with cold PBS buffer. Radioactivity was then counted on a Microbeta counter. Nonlinear regression was used to analyze the data with N = 6 replicates.

For test [2], the target named is T2, 5-HT2A (Homo sapiens, UniProt P28223).
T2 construct: purchased NIMH Psychoactive Drug Screening Program (PDSP)
The test is described as follows: PDSP primary binding 5-HT2A. The note with it: 1.5 h; primary binding, 10,000 nM; last figure of the line = mean of the 4 before it; read-out: 5-HT2A, PDSP raw data, mean. On the procedure:
as §1, §2, §3

In test [3] the target is T3, 5-HT4 (Homo sapiens, UniProt Q13639).
T3 construct: purchased NIMH Psychoactive Drug Screening Program (PDSP)
The test is described as follows: PDSP primary binding 5-HT4. The note with it: 1.5 h; primary binding, 10,000 nM; last figure of the line = mean of the 4 before it; read-out: 5-HT4, PDSP raw data, mean. How it is done:
as §1, §2, §3

The target of test [4] is T4, 5-HT6 (Homo sapiens, UniProt P50406).
T4 construct: purchased NIMH Psychoactive Drug Screening Program (PDSP)
The test is described as follows: PDSP primary binding 5-HT6. The note with it: 1.5 h; primary binding, 10,000 nM; last figure of the line = mean of the 4 before it; read-out: 5-HT6, PDSP raw data, mean. On the procedure:
as §1, §2, §3

Test [5] deals with T5, M5 (Homo sapiens, UniProt P08912).
T5 construct: purchased NIMH Psychoactive Drug Screening Program (PDSP)
T5 sequence (P08912 1-532): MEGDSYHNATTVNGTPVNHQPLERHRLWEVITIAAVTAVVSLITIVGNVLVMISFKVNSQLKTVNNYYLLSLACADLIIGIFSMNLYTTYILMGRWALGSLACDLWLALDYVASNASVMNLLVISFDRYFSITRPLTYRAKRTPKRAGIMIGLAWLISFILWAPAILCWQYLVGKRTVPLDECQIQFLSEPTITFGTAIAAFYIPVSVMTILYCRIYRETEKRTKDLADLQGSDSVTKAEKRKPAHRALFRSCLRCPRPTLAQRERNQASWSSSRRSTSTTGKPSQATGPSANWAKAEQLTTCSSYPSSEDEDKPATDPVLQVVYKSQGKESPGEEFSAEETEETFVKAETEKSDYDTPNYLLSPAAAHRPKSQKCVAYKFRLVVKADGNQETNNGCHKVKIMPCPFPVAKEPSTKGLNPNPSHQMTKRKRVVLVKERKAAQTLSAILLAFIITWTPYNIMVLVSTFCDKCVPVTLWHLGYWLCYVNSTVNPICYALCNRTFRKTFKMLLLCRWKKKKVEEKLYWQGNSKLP
As to the kind of experiment: PDSP primary binding M5. The note with it: primary binding, 10,000 nM; last figure of the line = mean of the 4 before it; read-out: M5, PDSP raw data, mean. How it is done: as §1, §2, §3

Test [6] concerns Alpha7. As to the kind of experiment: PDSP primary binding Alpha7. The note with it: primary binding, 10,000 nM; last figure of the line = mean of the 4 before it. On the procedure:
as §1, §2, §3

The target in test [7] is T6, V1B (Homo sapiens, UniProt P47901).
T6 construct: purchased NIMH Psychoactive Drug Screening Program (PDSP)
T6 sequence (P47901 1-424): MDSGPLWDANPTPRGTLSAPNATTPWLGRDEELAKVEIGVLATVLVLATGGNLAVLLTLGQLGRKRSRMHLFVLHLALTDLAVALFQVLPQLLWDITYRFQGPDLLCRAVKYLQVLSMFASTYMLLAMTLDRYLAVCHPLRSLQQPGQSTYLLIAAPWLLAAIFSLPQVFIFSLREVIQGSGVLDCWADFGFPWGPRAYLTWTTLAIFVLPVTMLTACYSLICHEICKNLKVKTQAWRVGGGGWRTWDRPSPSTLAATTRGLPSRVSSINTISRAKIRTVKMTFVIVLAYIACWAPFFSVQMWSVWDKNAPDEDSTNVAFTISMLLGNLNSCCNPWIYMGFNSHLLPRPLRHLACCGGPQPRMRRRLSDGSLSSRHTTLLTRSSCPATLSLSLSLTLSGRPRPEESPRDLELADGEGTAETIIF
The test is described as follows: PDSP primary binding V1B. The note with it: primary binding, 10,000 nM; last figure of the line = mean of the 4 before it; read-out: V1B, PDSP raw data, mean. How it is done:
as §1, §2, §3

The target in test [8] is T7, V2 (Homo sapiens, UniProt P30518).
T7 construct: purchased NIMH Psychoactive Drug Screening Program (PDSP)
The test is described as follows: PDSP primary binding V2. The note with it: primary binding, 10,000 nM; last figure of the line = mean of the 4 before it; read-out: V2, PDSP raw data, mean. On the procedure: as §1, §2, §3

T7 sequence (P30518 whole entry): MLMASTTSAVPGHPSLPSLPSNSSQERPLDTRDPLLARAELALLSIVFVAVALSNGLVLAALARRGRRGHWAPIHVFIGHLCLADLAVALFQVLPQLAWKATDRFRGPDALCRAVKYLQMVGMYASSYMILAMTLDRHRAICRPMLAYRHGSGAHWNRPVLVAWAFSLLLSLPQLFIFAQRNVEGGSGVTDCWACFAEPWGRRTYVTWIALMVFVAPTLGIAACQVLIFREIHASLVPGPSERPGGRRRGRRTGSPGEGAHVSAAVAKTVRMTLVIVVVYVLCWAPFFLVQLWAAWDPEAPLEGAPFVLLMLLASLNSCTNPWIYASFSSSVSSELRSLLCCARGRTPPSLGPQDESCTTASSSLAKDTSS
T2 sequence (P28223 whole entry): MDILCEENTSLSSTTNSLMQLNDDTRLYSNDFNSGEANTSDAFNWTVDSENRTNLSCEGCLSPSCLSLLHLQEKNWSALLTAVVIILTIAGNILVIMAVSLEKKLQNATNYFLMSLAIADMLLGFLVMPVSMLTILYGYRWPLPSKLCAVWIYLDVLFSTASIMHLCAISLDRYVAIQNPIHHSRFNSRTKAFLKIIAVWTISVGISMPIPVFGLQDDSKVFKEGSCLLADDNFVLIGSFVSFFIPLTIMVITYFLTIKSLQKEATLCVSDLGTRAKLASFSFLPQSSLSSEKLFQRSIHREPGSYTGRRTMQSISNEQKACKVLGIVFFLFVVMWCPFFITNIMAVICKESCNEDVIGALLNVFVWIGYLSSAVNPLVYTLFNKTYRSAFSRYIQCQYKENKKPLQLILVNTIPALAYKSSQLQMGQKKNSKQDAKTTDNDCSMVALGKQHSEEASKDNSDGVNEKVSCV
T3 sequence (Q13639 whole entry): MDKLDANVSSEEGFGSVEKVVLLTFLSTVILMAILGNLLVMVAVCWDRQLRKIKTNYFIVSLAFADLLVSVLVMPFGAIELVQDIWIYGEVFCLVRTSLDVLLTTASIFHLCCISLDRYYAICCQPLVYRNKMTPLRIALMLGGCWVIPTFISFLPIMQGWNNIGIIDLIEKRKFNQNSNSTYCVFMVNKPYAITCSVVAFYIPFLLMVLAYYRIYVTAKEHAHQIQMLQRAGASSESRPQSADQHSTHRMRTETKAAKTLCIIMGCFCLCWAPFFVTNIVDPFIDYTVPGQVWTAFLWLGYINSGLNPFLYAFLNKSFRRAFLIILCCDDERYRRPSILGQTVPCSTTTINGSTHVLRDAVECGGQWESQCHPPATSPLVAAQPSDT
T4 sequence (P50406 whole entry): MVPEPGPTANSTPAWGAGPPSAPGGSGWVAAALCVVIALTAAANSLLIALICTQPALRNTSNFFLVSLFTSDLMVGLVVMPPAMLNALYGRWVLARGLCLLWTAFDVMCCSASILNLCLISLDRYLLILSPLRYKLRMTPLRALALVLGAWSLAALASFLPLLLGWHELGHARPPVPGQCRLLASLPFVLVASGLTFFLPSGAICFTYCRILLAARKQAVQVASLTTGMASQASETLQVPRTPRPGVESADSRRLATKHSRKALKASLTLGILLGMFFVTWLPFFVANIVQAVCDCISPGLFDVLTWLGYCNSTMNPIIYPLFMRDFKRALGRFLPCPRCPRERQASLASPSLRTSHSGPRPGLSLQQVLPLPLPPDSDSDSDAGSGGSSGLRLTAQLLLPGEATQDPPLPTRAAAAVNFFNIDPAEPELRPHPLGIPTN

`CC(C)c1noc(-c2ncn3c2[C@@H](C)N=C(c2ccccc2F)c2cc(Cl)ccc2-3)n1` [Compound 37, (R)-5-(8-Chloro-6-(2′-fluorophenyl)-4-methyl-4H-benzo[f]imidazo[1,5-a][1,4]diazepin-3-yl)-3-isopropyl-1,2,4-oxadiazole]: the inhibition at 10 µM in test [1] was -6%; in test [2] it was 14.1%; in test [3] it was 48%; in test [4], -1.65%; in test [5] it was -4.88%; in test [7], -15.4%. Moreover, the inhibition at 10 µM in test [8] is -7.17%. In test [6], the “Alpha7, PDSP raw data, mean” value was determined as 21.26%.

Regarding `CCc1noc(-c2ncn3c2[C@@H](C)N=C(c2ccccc2F)c2cc(Cl)ccc2-3)n1` [Compound 36, (R)-5-(8-Chloro-6-(2′-fluorophenyl)-4-methyl-4H-benzo[f]imidazo[1,5-a][1,4]diazepin-3-yl)-3-ethyl-1,2,4-oxadiazole], the inhibition at 10 µM was 3% in test [1]; 11.1% in test [2]; -12.3% in test [3]; 10.8% in test [4]; -10.7% in test [5]; 22.9% in test [7]. The inhibition at 10 µM in test [8] was found to be 12.6%. Moreover, in test [6], the “Alpha7, PDSP raw data, mean” value was -13.86%.

As to `CCc1noc(-c2ncn3c2CN=C(c2ccccc2F)c2cc(C4CC4)ccc2-3)n1` [Compound 44, 5-(8-Cyclopropyl-6-(2′-fluorophenyl)-4H-benzo[f]imidazo[1,5-a][1,4]diazepin-3-yl)-3-ethyl-1,2,4-oxadiazole], the inhibition at 10 µM is 36.1% in test [1]; 21.2% in test [2]; -9.26% in test [3]; 27.6% in test [4]; -14.1% in test [5]; 35.7% in test [7]. Further, the inhibition at 10 µM in test [8] was found to be 27.7%. For the same compound, the “Alpha7, PDSP raw data, mean” value in test [6] is reported as -24.22%.
